Reference: EP0497921B1, “METHOD FOR INHIBITING ENZYMATIC SYNTHESIS OF NUCLEIC ACIDS USING ISOPSORALENS” (ISAACS, Stephen T., priority 1989, dated 1991)

Experiments:
calf thymus DNA = assay: Equilibrium dialysis, dark binding (association constant); settings: for Ka: 4°C, five days, dark, isopsoralen:DNA base pair ratio 1:15
Description: Equilibrium Dialysis was used to determine the association ("dark binding") constants of AMIP, AMDMIP and MIP with calf thymus DNA. The tritium labelled isopsoralens were used for the experiment. The method was a modification of that of Isaacs et al. Biochemistry 16, 1058-1066 (1977).
Spectrapor 2 dialysis tubing (Spectrum) was pretreated by boiling in saturated sodium bicarbonate then rinsed thoroughly with double distilled water. Calf thymus DNA (Sigma) was prepared at a concentration of 50 µg/ml in 1 X TE. The samples were prepared by placing 1.0 ml of the DNA solution inside the bag and using enough isopsoralen to provide an isopsoralen:DNA base pair ratio of 1:15. The samples were prepared with the tritiated isopsoralen ("Drug") placed either inside or outside
of the dialysis bag (each sample was placed in a scintillation vial containing a small magnetic stir bar). The samples were stirred at 4°C for five days in the dark. After this period the bags were removed, opened, and the radioactivity inside and outside the bag determined by scintillation counting. The concentration of the DNA was determined by measuring optical density at 260 nm. The […] constant (Ka) was calculated from this information (Table 9). Preparing the samples in duplicate with the isopsoralen both inside and outside the dialysis bag provided a check that the system had come to equilibrium at the end of the dialysis period (the amount of isopsoralen inside and outside the bag at equilibrium should be, and was, the same in both cases).
The association constant, Ka is defined here as Ka = ([P:DNA])/([P] [DNA]) [formula] for the reaction P + DNA = P:DNA where p = free drug in solution, DNA = DNA binding site for the drug, and P:DNA = drug associated with the DNA. The following summarizes the Ka values determined for the compounds: […]

Taq I DNA polymerase = assay: Primer extension on site-specific 71-mer monoadduct template; format: biochemical, Thermus aquaticus; settings: for Taq polymerase extension on 71-mer monoadduct template / position of the Taq polymerase stop within the 71-mer: 55°C, PAGE, autoradiography; for Taq polymerase extension on 71-mer monoadduct template: 0.5, 1.0, 5.0 mins
Description: In this experiment, monoadducted 71-mers (as well as unmodified 71-mers) were used in template-dependent enzymatic extension. AMIP, AMDMIP, and MIP 71-mer monoadducts were made as in Example 17. Extension was carried out as in Example 18 except that in this experiment, Taq I DNA polymerase, a thermostable DNA polymerase isolated from Thermus aquaticus (Stratagene, Inc., La Jolla, CA) was assessed for its ability to read past isopsoralens.
The reaction mixture was in 80 µl total volume and comprised 1 x Taq buffer, 200 µM each of dNTP's, 0.05 units of Taq per µl of reaction volume; 1 x 10^-9 M in 71-mer MA; 1 x 10^-8 M in ^32P-labelled SK-39. Each reaction was set up with everything except Taq polymerase. The samples were initially heated to 95°C for 5 mins, then incubated at 55°C for 3 mins. The extension reaction was initiated by addition of Taq polymerase. At the indicated time points (0.5, 1.0, 5.0 mins), 20 µl of the reaction mix was removed to a tube containing 1 µl of 0.5 M EDTA to stop the reaction. All products were analyzed on a 20% polyacrylamide, 7 M urea gel followed by autoradiography.
This experiment investigated whether blocking of Taq polymerase by monoadducts is complete or whether monoadducts can be bypassed by the enzyme. In order to view the process of bypass synthesis, it is necessary to cycle the extension reaction of the primer with the 71-mer templates. Cycling in this case consists of mixing the primer with the 71-mer template, adding Taq polymerase and appropriate reagents, extending, heating to induce strand separation, reannealing of the primer to the 71-mer template, extending again, and subsequent stand separation. This process can be repeated as necessary. During this process, only the complement of the 71-mer template is being synthesized. It is accumulating in a linear fashion with the number of thermal cycles (in contrast to PCR where both strands are being synthesized and accumulate geometrically).
The templates and reaction conditions were as in Example 19 above except that three samples were used for each monoadduct and each sample was tested under different conditions: • Samples (1): one sample for each monoadduct was used to carry out extension at 55°C as in Example 43; • Samples (2): one sample for each monoadduct was used to carry out extension by the following series of steps: denaturing at 95°C; incubating for 30 seconds at 55°C; adding Taq polymerase for 3 minutes at 550C; cooling the reaction for 1 minute at 7°C; stopping the reaction with EDTA for one minute at 95°C: • Samples (3): one sample for each monoadduct was used to carry out extension by repeating the following series of steps nine times: denaturing at 95°C; incubating for 30 seconds at 55°C; adding Taq polymerase for 3 minutes at 55°C; cooling the reaction for 1 minute at 7°C. At the end, the reaction is stopped with EDTA for one minute at 95°C.
To investigate this question further, a new 5-MIP monoadducted 71-mer was prepared by repurification of the HPLC purified 5-MIP monoadducted 15-mer by PAGE. In this way, more of the non-monoadducted 15-mer was removed prior to ligation. The purified 71-mer was then used as template in an extension experiment as described in Example 20. After 10 cycles, there was still evidence of extension product (Figure 34).
Monoadducted 71-mer was constructed as described, but for HMT. Extension was carried out and analyzed as before on PAGE. […] Full length 71-mer is not made and a shorter strand corresponding to the position of the HMT adduct was made.

[1] = tritiated drug placed inside dialysis bag
[2] = tritiated drug placed outside dialysis bag

Compound | Ka relative to AMDMIP (calf thymus DNA; compared with AMDMIP) [%] | Ka (calf thymus DNA; [1]) | Ka (calf thymus DNA; [2]) | Taq polymerase extension on 71-mer monoadduct template (Taq I DNA polymerase) | position of the Taq polymerase stop within the 71-mer (Taq I DNA polymerase) | extension products truncated (Taq I DNA polymerase; monoadducted 15-mer repurified by PAGE before ligation, after 10 cycles) [%] | full length extension product as share of the total extension products (Taq I DNA polymerase; monoadducted 15-mer repurified by PAGE before ligation, after 10 cycles, band excised and counted) [%]
5-Aminomethylisopsoralen [AMIP] | 28 | 2.96 x 10^4 | 2.21 x 10^4 | stops at positions that are shorter than the full length 71-mer product | multiple stops | – | –
4'-Aminomethyl-4,5'-dimethylisopsoralen [AMDMIP] | – | 7.66 x 10^4 | 1.07 x 10^5 | stops at positions that are shorter than the full length 71-mer product | a different stop altogether | – | –
Cc1cc2occc2c2oc(=O)ccc12 [MIP, 5-Methylisopsoralen] | – | 9.08 x 10^3 | 2.07 x 10^3 | stops at positions that are shorter than the full length 71-mer product | at about the position of the TpA sequence in the 10-mer | 97.7 | 2.3
